Measurements taken from US5352667A, “Non-peptidic surrogates of the Arg-Gly-Asp sequence and pharmaceutical compositions comprising them” (priority 1991, dated 1994).
Entries after “also recorded” stand apart in the source; their conditions may differ.

Assays:
[1] = system: B16-melanoma cells adhesion to FN; experiment: Inhibition of B16-melanoma cell adhesion to FN; format: cell-based, murine
[2] = system: CD4^+ T cell adhesion to FN; experiment: Inhibition of activated CD4+ T cell adhesion to FN; format: cell-based, human
Procedure: To examine the adhesive properties of the T cells, 1 μg/50 μl/well of either fibronectin (FN) (Sigma), the 120 kD cell attachment fragment of FN (Telios Pharm. Inc. San Diego, CA), or laminin (LN) (Sigma), were added to 96-flat bottom microtiter-wells for 12 h. Unbound proteins were then washed away and remaining binding sites were blocked with 0.1% bovine serum albumin (BSA) added to the wells for 2 h and washed. CD4+T cells were purified from peripheral blood mononuclear leukocytes obtained from healthy human donors. The mononuclear cells were isolated using a Ficoll gradient, washed and incubated in RPMI supplemented with 10% fetal calf serum (FCS) and antibiotics in petri dishes at 37° C. humidified CO2 incubator. After 2 h, the non-adherent cells were isolated and applied on nylon-wool columns (1.5 h). CD4^+ T cells were then negatively selected by exposure of the cells to a cocktail of anti-CD8, CD19, and CD14 monoclonal antibodies (mAb) conjugated to magnetic-beads (Advanced Magnetics, MA). Unbound cells were recovered and their phenotype was examined. Purity of the CD4^+ T cells was always greater than 92% as determined by FACScan.
The purified CD4^+ T cells were radioactively labeled with ^51 [Cr](New England Nuclear) in RPMI +20% FCS for 2 h and washed. The cells were counted and seeded (0.2×10^5 cells) on the precoated microtiter wells in the presence or the absence of the various inhibitors. Coating was made either with FN, the 120 kD cell-attachment fragment of FN or with control adhesive protein laminin (LN). The inhibitors were various surrogates according to the invention, other test molecules or mAb. After 30 min incubation (in […] CO2 -- humidified incubator) the T cells were activated by 10 ng/ml phorbol myristate acetate (PMA) and the percent of T cells attached to the protein substrates was measured. Unbound cells were washed away after 20-30 min, the bound cells were lysed and their radioactivity was measured using radioactive counter. The amount of the radioactivity of the cell lysates represent the matrix-adherent cells and percent binding was calculated in comparison to the total radioactivity added to the wells. Activated T cell adhesion to control wells or to wells coated with BSA was always 2-5%; the level of adhesion of the non-activated T cells was always below 5%. Where indicated, 1/200 diluted mAb anti-CD29 (anti-β1 mAb Serotec, GB), or 1/400 diluted anti-VLA5 (the β1α5 FN-integrin receptor) mAb (Telios Pharm. Inc. San Diego), or 0.2 mM of RGD, GRGDSPK or GRGESP peptides (Sigma) were used. […] The results shown in Tables 1A, 1B and 1C represent data obtained from several experiments that produced essentially similar results.
In a second series of experiments, FN was used in the adhesion assay carried out with the RGD surrogates NS-8, NS-11 and NS-15 in comparison to RGDS peptide.
In a third series of experiments, FN was used in the adhesion assay with the surrogates SF-6,5 and NS-11 and compared to the peptide GRGDSP.

[3] = target: T1, platelet GPIIb-IIIa receptor (Homo sapiens, UniProt P05106+P08514); experiment: Inhibition of ADP-induced platelet aggregation (platelet rich plasma); format: cell-based
T1 construct: Platelet concentrates were prepared from human whole blood; endogenous in cells; host or cells: human platelets in platelet rich plasma
T1 sequence (P08514 32-887 limits assumed): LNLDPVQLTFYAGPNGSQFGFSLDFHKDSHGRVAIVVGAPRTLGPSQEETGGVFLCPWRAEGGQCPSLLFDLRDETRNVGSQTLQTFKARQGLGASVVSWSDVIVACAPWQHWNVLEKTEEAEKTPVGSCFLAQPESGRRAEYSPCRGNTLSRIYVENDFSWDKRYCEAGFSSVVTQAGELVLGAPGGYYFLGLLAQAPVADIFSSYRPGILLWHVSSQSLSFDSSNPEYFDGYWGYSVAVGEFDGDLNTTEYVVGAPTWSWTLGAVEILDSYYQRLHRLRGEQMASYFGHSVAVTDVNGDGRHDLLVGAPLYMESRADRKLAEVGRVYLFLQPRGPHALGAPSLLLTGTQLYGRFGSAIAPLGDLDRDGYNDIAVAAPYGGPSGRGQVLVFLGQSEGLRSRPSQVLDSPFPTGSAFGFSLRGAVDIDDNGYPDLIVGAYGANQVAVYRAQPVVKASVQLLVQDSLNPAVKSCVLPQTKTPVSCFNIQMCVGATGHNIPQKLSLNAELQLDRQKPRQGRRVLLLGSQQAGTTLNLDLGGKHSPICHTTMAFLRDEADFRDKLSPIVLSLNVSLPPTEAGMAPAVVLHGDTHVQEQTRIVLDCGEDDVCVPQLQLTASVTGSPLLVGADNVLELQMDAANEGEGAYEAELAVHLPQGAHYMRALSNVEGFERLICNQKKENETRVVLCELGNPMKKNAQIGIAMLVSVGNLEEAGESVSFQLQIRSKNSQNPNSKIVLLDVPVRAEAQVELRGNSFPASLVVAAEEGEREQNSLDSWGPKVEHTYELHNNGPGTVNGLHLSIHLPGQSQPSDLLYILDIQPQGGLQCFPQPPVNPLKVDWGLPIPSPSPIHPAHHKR
T1 sequence (P08514 891-1039 limits assumed): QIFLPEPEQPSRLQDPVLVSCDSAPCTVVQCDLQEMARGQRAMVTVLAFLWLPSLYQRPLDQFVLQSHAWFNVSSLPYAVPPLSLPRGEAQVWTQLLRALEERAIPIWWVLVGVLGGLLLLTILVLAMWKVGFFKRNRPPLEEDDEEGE
T1 sequence (P05106 27-788): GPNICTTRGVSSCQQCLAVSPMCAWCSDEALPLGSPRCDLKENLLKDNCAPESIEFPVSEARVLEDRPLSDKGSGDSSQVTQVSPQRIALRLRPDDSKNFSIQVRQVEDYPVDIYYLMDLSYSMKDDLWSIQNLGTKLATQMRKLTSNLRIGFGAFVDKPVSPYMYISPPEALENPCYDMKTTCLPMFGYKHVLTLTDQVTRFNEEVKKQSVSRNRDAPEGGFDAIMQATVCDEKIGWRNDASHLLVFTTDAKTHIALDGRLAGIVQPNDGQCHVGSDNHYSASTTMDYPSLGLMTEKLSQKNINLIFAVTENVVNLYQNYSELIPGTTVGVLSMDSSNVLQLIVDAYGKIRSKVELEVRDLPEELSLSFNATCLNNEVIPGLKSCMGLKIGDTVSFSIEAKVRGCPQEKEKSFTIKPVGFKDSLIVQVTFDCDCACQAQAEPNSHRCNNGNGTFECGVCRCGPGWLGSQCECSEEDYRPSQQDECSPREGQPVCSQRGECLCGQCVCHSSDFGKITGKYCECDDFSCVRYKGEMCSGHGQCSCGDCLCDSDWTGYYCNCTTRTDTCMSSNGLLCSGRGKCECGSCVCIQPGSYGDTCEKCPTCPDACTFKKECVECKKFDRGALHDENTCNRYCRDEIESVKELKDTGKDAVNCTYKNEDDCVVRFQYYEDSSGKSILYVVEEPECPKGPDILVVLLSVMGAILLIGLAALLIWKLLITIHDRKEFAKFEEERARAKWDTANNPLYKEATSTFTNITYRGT
Procedure: To investigate the inhibitory role of the RGD analogues on adhesion, the platelet GPIIb-IIIa receptor which mediates platelet aggregation upon activation was used as a model.
Platelet concentrates were prepared from human whole blood in 10% adenine-citrate-dextrose in Fenwall bags (Baxter Travenol, Israel) followed by standard AABB protocol. Platelet rich plasma was prepared by centrifugation (2500 rpm for 5 min). Samples of platelets were counted in a Minos AST Cell Counter (Levoiselle, France). Cell aggregation was induced by […] and monitored at […] in a 4-channel Aggregometer (Bio-Data, Hatboro, Pa.). To evaluate the effect of the various RGD peptides and the peptide analogues, the platelet rich plasma was pre-incubated with the various inhibitors for 10 min at 37° C. with 10μsolutions followed by the induction of aggregation.
To examine the specificity of the inhibitory effect of the RGD-analogues on platelet aggregation, the cells were treated with various peptidic (RGD and GRGDSP) and non-peptidic (SF-6,6, SF-6,5 and AC-15) RGD analogues used at a fixed sub-saturating concentration of 0.5 mM.
An in vitro assay as described in Example 17 was carried out with the compound NS-11 to examine its ability to interfere with platelet aggregation, and compared it to the SF-6,5 surrogate.
Platelet rich plasma (PRP) was prepared from acid/citrate/dextrose anti-coagulated fresh human blood by differential centrifugation. Platelet aggregation was induced by […] and monitored at 695 nm by a 4-channel Aggregometer (Bio-Data, PA). To evaluate the effect of the RGDS peptide and the NS-8, NS-11 and NS-15 analogs, the PRP was preincubated with the inhibitors for 10 minutes at 37° C., prior to the induction of aggregation. […] In fact, 50% inhibition of platelet aggregation was achieved using a 30-fold lower concentration of NS-11 than that of RGDS.

trypsin = experiment: Treatment with trypsin (HPLC monitoring of hydrolysis); format: in vitro ADME; conditions: 0.25% trypsin, 37° C., HPLC at 220 nm, aliquots 5, 30, 60 min
Procedure: Compound SF-6,5 and the GRGDS peptide (50 μg in 100 μl PBS) were incubated at 37° C. and exposed to 0.25% trypsin (Gibco; 50μl in modified Puck's buffer). Aliquots were taken after 5, 30 and 60 min and monitored by HPLC at 220 nm.

[4] = system: tumor cell-induced metastases; experiment: Inhibition of tumor cell-induced metastases in C57BL/6 mice; format: in vivo; conditions: i.v. daily, 25μg of SF-6,5 per mouse, after induction of metastasis
[5] = system: BHK cells and chick embryo fibroblasts; conditions: Yamada and Kennedy, 1987; cited from earlier work

N=C(N)NCCCC(=O)N1CCCC(C(=O)NCCC(=O)O)C1 (stereo not shown) [NS-11]
% Adhesion of activated tumor cells to FN: (% inhibition) ([1]; Conc. 25 μg. ml): 35% | % Adhesion of activated tumor cells to FN: (% inhibition) ([1]; Conc. 50 μg. ml): 45% | % Adhesion of activated tumor cells to FN: (% inhibition) ([1]; Conc. 100 μg. ml): 70% | % Adhesion of activated CD4^+ T cell to FN: (% inhibition) ([2]; Conc. 25 μg. ml): 30% | % Adhesion of activated CD4^+ T cell to FN: (% inhibition) ([2]; Conc. 50 μg. ml): 50% | % Adhesion of activated CD4^+ T cell to FN: (% inhibition) ([2]; Conc. 100 μg. ml): 85% | Inhibition of cell adhesion relative to RGDS, in words ([2]; Table 1B): better inhibitor of cell adhesion than the RGDS peptide | % Inhibition of adhesion ([2]; Table 1B, surrogates 0.2 mM, CD4^+ T cell to FN): 71% | % Adhesion of activated CD4^+ to FN ([2]; Table 1B, surrogates 0.2 mM, none 65): 19% | inhibition at 100 µM ([3]; 0.1 mM, ADP-induced, read-out: Percent inhibition of aggregation): 90% | Effect on platelet aggregation better than that of the RGD-peptide by ([3]; 0.1 mM, same concentration): ~20% | inhibition at 300 µM ([3]; 0.3 mM, ADP-induced, read-out: Percent inhibition of aggregation): 100% | Inhibition of platelet aggregation, comparison in words ([3]; FIG. 5, Example 19): better inhibitor of platelet aggregation than either NS-8 and NS-15; also recorded: found to inhibit platelet aggregation better than the RGD-containing peptide (RGDS) | 50% inhibition of platelet aggregation: lower concentration than that of RGDS ([3]; FIG. 5, vs RGDS): 30 fold | Inhibition of platelet aggregation, in words ([3]; Table 3): better inhibitor of platelet aggregation than SF-6,5; also recorded: significantly better inhibitor than the RGD-containing peptide

GRGDS [reference compound]
Stability to trypsin (trypsin): completely hydrolized after 5 min

GRGDSP [reference compound]
% Adhesion of activated tumor cells to FN: (% inhibition) ([1]; Conc. 25 μg. ml): 30% | % Adhesion of activated tumor cells to FN: (% inhibition) ([1]; Conc. 50 μg. ml): 40% | % Adhesion of activated tumor cells to FN: (% inhibition) ([1]; Conc. 100 μg. ml): 65% | Inhibition of tumor cell-induced metastases [4]: failed to inhibit metastases | % Adhesion of activated CD4^+ T cell to FN: (% inhibition) ([2]; Conc. 25 μg. ml): 40% | % Adhesion of activated CD4^+ T cell to FN: (% inhibition) ([2]; Conc. 50 μg. ml): 50% | % Adhesion of activated CD4^+ T cell to FN: (% inhibition) ([2]; Conc. 100 μg. ml): 75% | Percent inhibition of aggregation ([3]; 0.1 mM, ADP-induced): 75%

Ser-Asp-Gly-Arg (SDGR; printed: Ser-Asp-Gly-Arg)
Inhibition of cell spreading, in words [5]: inhibit spreading of BHK cells and chick embryo fibroblasts on vitronectin-coated substrates and on fibronectin-coated substrates
